According to ChEMBL document CHEMBL1201862, “PubChem BioAssay data set” (2004):
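Step 1: Grow cells in 96-well plates. Step 2: Expose to compound for 48 hours at 5 concentrations. Step 3: Interpolate endpoints linearly; if unreached, use highest concentration. GI50 = concentration required for 50% inhibition of growth.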 Active and inactive are the calls of the source. Rule as the data show it: active = GI50 up to about 1.1 µM and inactive = higher.

Assays:
Test in all cases: NCI tumour cell line growth inhibition, 48 h
COLO 205 = test system: COLO 205
EKVX = test system: EKVX
HCC 2998 = test system: HCC 2998
HT-29 = test system: HT-29
Hs-578T = test system: Hs-578T
K562 = test system: K562
MCF7 = test system: MCF7
MDA-MB-231 = test system: MDA-MB-231
MDA-MB-435 = test system: MDA-MB-435
MOLT-4 = test system: MOLT-4
OVCAR-3 = test system: OVCAR-3
OVCAR-5 = test system: OVCAR-5
PC-3 = test system: PC-3
RPMI-8226 = test system: RPMI-8226
SF-268 = test system: SF-268
SF-295 = test system: SF-295
SW-620 = test system: SW-620
UACC-257 = test system: UACC-257
T47D = test system: T47D

SMILES | GI50 (COLO 205) | GI50 (EKVX) | GI50 (HCC 2998) | GI50 (HT-29) | GI50 (Hs-578T) | GI50 (K562) | GI50 (MCF7) | GI50 (MDA-MB-231) | GI50 (MDA-MB-435) | GI50 (MOLT-4) | GI50 (OVCAR-3) | GI50 (OVCAR-5) | GI50 (PC-3) | GI50 (RPMI-8226) | GI50 (SF-268) | GI50 (SF-295) | GI50 (SW-620) | GI50 (UACC-257) | GI50 (T47D)
C[C@@]1(O)C[C@@H](N2C(=O)O[C@@H](c3ccccc3)[C@H]2c2ccccc2)[C@@H]1COCc1ccccc1 | 15 µM (inactive) | 20.5 µM (inactive) | 19.8 µM (inactive) | 17.9 µM (inactive) | 21.9 µM (inactive) | 19.4 µM (inactive) | 24.5 µM (inactive) | 15.5 µM (inactive) | 28.4 µM (inactive) | 5.41 µM (inactive) | 17.3 µM (inactive) | 23.1 µM (inactive) | 15.9 µM (inactive) | 7.74 µM (inactive) | 18.2 µM (inactive) | 16.4 µM (inactive) | 26 µM (inactive) | 15.9 µM (inactive) | 
O=C(O)CSc1nnc2c3ccccc3c3ccccc3c2n1 | > 100 µM (inactive) | 63 µM (inactive) | 52.6 µM (inactive) | 68.4 µM (inactive) | 70.6 µM (inactive) | 59.6 µM (inactive) | 40.3 µM (inactive) | 67.3 µM (inactive) | 52 µM (inactive) |  | 33.3 µM (inactive) | > 100 µM (inactive) | 50.2 µM (inactive) | 32.4 µM (inactive) | 56.1 µM (inactive) | 41.8 µM (inactive) | 42.7 µM (inactive) | > 100 µM (inactive) | 
[N-]=[N+]=Nc1c(-c2ccccc2)c(Cl)nc2ccccc12 | 20 µM (inactive) | 33 µM (inactive) | 44.2 µM (inactive) | 19.7 µM (inactive) | 44.2 µM (inactive) | 45.7 µM (inactive) |  | 31.8 µM (inactive) | 38.3 µM (inactive) | 51.4 µM (inactive) | 44.6 µM (inactive) | > 100 µM (inactive) | 26.2 µM (inactive) | 29.7 µM (inactive) | 48.1 µM (inactive) | 22.8 µM (inactive) | 35.4 µM (inactive) | 25.5 µM (inactive) | 41 µM (inactive)
O=P1(Oc2ccccc2)NCc2ncccc2O1 (stereo not drawn) | > 100 µM (inactive) | > 100 µM (inactive) | > 100 µM (inactive) | > 100 µM (inactive) |  | > 100 µM (inactive) | > 100 µM (inactive) | > 100 µM (inactive) | > 100 µM (inactive) | > 100 µM (inactive) | > 100 µM (inactive) | > 100 µM (inactive) | > 100 µM (inactive) | > 100 µM (inactive) |  | > 100 µM (inactive) | > 100 µM (inactive) | > 100 µM (inactive) | > 100 µM (inactive)
COc1ccc(-c2nc3cc(F)ccc3s2)cc1O | 28.7 µM (inactive) | 6.59 µM (inactive) | 2.57 µM (inactive) | 26.4 µM (inactive) |  | 73.1 µM (inactive) | 0.668 µM (active) | 39.6 µM (inactive) | 56.1 µM (inactive) | > 100 µM (inactive) | 29.7 µM (inactive) | 48.6 µM (inactive) | 34.7 µM (inactive) | 17.6 µM (inactive) | 28 µM (inactive) | 22.5 µM (inactive) | 87.9 µM (inactive) | 24.9 µM (inactive) | 0.514 µM (active)
CC1(C)CC(=O)c2c(N)n[nH]c2C1 | > 100 µM (inactive) | > 100 µM (inactive) | > 100 µM (inactive) | > 100 µM (inactive) |  | > 100 µM (inactive) | > 100 µM (inactive) | > 100 µM (inactive) | > 100 µM (inactive) | > 100 µM (inactive) | > 100 µM (inactive) | > 100 µM (inactive) | > 100 µM (inactive) | > 100 µM (inactive) |  | > 100 µM (inactive) | > 100 µM (inactive) | > 100 µM (inactive) | 
OC1(c2cc3ccccc3s2)CCCCC1 | 19.9 µM (inactive) | 33.6 µM (inactive) | 76 µM (inactive) | 23.7 µM (inactive) | 28.5 µM (inactive) | 34.4 µM (inactive) | 36.6 µM (inactive) | 30.8 µM (inactive) | 46.8 µM (inactive) | 25.8 µM (inactive) | 30.1 µM (inactive) | 40.8 µM (inactive) |  |  | 29.2 µM (inactive) | 37.9 µM (inactive) | 50.1 µM (inactive) | 32.6 µM (inactive) | 
NS(=O)(=O)c1nnc(NC(=O)CCC(=O)O)s1 | > 100 µM (inactive) | > 100 µM (inactive) | > 100 µM (inactive) | > 100 µM (inactive) | > 100 µM (inactive) | > 100 µM (inactive) | > 100 µM (inactive) | > 100 µM (inactive) | > 100 µM (inactive) | > 100 µM (inactive) | > 100 µM (inactive) | > 100 µM (inactive) |  | > 100 µM (inactive) | > 100 µM (inactive) | > 100 µM (inactive) | > 100 µM (inactive) | > 100 µM (inactive) | > 100 µM (inactive)
